The values below come from ChEMBL document CHEMBL5291721, “A preclinical secondary pharmacology resource illuminates target-adverse drug reaction associations of marketed drugs” (Nat Commun, 2023).

Molecules are shown by their SMILES.

Targets include Adenosine receptor A2a (Homo sapiens, UniProt P29274); Vasopressin V2 receptor (Homo sapiens, UniProt P30518); Motilin receptor (Homo sapiens, UniProt O43193); D(3) dopamine receptor (Homo sapiens, UniProt P35462); Histamine H3 receptor (Homo sapiens, UniProt Q9Y5N1).
Test [1] deals with T1, Alpha-1A adrenergic receptor (Homo sapiens, UniProt P35348).
T1 sequence (P35348 whole entry): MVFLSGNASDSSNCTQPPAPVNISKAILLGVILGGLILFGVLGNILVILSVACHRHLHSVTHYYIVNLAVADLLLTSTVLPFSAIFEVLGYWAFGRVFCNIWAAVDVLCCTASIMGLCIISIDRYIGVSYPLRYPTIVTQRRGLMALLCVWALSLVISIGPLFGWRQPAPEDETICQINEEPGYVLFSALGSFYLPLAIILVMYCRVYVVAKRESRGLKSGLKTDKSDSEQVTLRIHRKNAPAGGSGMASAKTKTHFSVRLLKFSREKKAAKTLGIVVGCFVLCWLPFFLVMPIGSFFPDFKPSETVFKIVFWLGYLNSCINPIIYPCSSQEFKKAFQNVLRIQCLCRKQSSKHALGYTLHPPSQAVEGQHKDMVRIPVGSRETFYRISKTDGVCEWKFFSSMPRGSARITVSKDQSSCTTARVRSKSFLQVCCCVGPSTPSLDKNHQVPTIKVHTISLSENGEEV
It is filed as functional, cell-based.

Test [2] addresses T2, Muscarinic acetylcholine receptor M2 (Homo sapiens, UniProt P08172).
T2 sequence (P08172 whole entry): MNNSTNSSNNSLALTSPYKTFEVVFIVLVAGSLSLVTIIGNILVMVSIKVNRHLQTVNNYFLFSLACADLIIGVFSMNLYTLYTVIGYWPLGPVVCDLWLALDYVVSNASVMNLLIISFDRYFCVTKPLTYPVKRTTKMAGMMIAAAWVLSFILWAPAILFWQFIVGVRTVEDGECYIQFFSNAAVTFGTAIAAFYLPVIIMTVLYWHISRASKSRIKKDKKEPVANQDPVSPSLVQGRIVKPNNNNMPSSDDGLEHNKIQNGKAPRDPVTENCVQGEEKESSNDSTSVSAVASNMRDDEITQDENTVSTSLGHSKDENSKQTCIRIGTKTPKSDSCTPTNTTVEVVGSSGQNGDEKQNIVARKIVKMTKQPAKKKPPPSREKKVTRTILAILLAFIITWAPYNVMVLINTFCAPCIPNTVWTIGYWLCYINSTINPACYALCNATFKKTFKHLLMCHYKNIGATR
It is filed as functional, cell-based.

In test [3] the target is Muscarinic acetylcholine receptor M3 (Homo sapiens, UniProt P20309).
The target of test [4] is Neuronal acetylcholine receptor subunit alpha-4 (Homo sapiens, UniProt P43681).
The next test deals with Histamine H2 receptor (Homo sapiens, UniProt P25021). It is filed as functional, cell-based.
For test [5], the target named is T3, 5-hydroxytryptamine receptor 2C (Homo sapiens, UniProt P28335).
T3 sequence (P28335 whole entry): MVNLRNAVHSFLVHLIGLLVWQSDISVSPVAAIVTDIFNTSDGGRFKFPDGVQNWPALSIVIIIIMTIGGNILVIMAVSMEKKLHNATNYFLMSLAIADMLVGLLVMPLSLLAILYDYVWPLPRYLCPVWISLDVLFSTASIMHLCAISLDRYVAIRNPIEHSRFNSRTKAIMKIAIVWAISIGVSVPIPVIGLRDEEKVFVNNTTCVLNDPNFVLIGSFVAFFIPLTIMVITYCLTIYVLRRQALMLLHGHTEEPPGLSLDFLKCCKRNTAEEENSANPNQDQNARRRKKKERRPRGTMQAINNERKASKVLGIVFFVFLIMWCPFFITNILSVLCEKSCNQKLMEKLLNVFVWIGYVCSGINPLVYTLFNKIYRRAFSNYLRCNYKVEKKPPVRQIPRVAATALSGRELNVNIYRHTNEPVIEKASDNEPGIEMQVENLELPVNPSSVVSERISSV

For test [6], the target named is Kappa-type opioid receptor (Homo sapiens, UniProt P41145).
Test [7] deals with 3',5'-cyclic-AMP phosphodiesterase 4D (Homo sapiens, UniProt Q08499). It counts as functional.
In test [8] the target is T4, Equilibrative nucleoside transporter 1 (Homo sapiens, UniProt Q99808).
T4 sequence (Q99808 whole entry): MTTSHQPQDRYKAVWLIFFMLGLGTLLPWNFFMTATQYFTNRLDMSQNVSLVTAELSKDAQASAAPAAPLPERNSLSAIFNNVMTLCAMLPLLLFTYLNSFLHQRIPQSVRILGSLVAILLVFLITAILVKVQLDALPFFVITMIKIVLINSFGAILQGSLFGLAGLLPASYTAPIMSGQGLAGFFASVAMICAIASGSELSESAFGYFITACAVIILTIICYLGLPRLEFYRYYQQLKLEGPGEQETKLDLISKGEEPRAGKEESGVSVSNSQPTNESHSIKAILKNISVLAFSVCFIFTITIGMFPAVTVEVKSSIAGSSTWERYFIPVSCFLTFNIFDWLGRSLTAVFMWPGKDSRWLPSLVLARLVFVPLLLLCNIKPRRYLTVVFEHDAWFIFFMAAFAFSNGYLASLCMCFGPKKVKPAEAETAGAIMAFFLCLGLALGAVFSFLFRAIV

Test [9] addresses cGMP-inhibited 3',5'-cyclic phosphodiesterase 3A (Homo sapiens, UniProt Q14432). It is filed as functional.
The target of test [10] is Beta-2 adrenergic receptor (Homo sapiens, UniProt P07550).
Test [11] concerns the target Voltage-dependent L-type calcium channel subunit alpha-1C (Rattus norvegicus, UniProt P22002). It is filed as functional.
Further: assay procedure not described here.

Chain of Kappa-type opioid receptor (P41145 whole entry): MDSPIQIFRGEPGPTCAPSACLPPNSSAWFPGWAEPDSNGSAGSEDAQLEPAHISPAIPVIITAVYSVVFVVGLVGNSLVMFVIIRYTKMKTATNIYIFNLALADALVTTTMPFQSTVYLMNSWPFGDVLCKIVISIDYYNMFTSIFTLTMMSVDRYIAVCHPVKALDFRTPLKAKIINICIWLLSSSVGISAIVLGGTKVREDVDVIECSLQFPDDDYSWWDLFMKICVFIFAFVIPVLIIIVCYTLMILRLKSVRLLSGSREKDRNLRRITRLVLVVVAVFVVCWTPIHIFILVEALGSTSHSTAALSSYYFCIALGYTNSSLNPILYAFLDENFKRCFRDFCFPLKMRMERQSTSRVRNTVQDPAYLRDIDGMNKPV
Chain of Motilin receptor (O43193 whole entry): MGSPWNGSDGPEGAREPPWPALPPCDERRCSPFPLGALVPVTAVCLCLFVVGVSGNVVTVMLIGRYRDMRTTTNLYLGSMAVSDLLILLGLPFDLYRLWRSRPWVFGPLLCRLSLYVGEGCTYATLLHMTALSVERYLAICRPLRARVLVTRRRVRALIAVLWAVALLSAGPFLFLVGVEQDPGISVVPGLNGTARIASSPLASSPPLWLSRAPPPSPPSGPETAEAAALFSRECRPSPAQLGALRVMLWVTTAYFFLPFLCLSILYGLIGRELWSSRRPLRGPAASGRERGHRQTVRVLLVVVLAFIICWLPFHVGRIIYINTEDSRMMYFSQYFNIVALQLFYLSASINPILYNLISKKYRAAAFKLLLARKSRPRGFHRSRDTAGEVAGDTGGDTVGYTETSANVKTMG
Chain of Vasopressin V2 receptor (P30518 whole entry): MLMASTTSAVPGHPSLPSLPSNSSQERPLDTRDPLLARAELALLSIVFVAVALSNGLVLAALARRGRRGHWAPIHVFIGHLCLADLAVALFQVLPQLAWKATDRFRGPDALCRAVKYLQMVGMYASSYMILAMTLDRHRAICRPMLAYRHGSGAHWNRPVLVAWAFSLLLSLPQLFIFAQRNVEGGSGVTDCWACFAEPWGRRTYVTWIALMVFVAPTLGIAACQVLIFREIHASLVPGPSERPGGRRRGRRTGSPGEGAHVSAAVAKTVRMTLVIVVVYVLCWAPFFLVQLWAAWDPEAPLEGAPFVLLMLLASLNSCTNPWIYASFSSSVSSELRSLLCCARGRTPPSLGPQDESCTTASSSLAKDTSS
Chain of Muscarinic acetylcholine receptor M3 (P20309 whole entry): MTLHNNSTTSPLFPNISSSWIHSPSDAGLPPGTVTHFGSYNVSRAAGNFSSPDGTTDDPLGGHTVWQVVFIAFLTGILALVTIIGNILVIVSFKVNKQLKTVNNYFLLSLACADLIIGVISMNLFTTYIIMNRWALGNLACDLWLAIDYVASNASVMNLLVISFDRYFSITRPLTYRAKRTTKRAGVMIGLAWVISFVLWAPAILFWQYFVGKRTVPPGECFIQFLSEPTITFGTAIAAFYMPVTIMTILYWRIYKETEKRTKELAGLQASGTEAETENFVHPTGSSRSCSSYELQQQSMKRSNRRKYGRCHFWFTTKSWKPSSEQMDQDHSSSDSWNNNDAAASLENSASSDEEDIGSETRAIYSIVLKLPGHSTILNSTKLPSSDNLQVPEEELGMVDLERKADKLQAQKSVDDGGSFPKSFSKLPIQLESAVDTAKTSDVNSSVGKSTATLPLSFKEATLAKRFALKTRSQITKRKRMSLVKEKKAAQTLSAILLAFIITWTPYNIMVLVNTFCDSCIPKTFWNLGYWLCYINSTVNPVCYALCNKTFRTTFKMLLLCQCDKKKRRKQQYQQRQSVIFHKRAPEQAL
Chain of Histamine H3 receptor (Q9Y5N1 whole entry): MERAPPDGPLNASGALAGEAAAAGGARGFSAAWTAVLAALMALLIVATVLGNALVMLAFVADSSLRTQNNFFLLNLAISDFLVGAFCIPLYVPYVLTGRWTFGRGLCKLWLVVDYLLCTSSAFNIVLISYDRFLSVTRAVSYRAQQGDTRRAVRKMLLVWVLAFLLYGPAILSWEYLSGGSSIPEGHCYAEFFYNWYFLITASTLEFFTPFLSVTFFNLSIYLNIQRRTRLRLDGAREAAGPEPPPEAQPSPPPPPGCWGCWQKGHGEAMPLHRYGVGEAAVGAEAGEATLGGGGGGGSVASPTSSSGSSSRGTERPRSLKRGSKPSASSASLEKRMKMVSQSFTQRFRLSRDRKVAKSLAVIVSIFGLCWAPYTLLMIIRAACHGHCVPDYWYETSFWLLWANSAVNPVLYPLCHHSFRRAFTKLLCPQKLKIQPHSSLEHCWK
Chain of Beta-2 adrenergic receptor (P07550 whole entry): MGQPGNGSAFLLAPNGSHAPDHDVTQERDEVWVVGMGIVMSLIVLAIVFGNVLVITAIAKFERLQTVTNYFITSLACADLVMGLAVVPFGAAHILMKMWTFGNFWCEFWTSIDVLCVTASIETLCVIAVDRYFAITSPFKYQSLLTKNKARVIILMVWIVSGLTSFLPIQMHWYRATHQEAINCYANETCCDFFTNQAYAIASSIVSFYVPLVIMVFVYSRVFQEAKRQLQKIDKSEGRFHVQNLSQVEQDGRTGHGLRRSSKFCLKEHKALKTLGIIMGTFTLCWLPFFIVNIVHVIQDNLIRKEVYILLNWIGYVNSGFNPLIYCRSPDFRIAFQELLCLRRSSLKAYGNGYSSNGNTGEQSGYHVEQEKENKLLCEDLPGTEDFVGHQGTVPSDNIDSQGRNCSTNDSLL
Chain of Neuronal acetylcholine receptor subunit alpha-4 (P43681 whole entry): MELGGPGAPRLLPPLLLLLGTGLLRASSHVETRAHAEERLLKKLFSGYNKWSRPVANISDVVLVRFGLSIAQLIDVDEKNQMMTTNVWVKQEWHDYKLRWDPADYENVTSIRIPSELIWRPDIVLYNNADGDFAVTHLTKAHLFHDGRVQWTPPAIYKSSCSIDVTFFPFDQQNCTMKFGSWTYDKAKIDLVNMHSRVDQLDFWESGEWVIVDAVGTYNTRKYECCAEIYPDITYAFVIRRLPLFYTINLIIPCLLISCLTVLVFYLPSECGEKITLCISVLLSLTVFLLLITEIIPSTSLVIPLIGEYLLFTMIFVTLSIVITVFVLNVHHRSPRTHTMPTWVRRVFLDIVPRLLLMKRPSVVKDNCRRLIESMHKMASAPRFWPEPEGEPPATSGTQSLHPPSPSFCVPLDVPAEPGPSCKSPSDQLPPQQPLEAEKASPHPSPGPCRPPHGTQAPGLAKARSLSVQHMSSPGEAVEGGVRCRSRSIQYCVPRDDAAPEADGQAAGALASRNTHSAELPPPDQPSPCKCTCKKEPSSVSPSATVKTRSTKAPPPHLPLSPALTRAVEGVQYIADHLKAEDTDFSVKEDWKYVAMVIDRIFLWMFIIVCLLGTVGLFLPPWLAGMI
Chain of Adenosine receptor A2a (P29274 whole entry): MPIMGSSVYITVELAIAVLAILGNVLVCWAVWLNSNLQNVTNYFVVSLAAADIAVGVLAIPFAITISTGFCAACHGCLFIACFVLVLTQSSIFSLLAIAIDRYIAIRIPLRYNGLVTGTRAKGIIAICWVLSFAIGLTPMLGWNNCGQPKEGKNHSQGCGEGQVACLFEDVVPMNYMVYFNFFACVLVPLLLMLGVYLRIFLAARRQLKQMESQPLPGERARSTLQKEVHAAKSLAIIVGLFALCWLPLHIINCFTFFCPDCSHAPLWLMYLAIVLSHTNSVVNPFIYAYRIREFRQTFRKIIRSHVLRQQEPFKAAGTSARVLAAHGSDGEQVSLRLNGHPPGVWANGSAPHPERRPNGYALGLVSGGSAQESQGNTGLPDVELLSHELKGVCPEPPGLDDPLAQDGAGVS
Chain of cGMP-inhibited 3',5'-cyclic phosphodiesterase 3A (Q14432 whole entry): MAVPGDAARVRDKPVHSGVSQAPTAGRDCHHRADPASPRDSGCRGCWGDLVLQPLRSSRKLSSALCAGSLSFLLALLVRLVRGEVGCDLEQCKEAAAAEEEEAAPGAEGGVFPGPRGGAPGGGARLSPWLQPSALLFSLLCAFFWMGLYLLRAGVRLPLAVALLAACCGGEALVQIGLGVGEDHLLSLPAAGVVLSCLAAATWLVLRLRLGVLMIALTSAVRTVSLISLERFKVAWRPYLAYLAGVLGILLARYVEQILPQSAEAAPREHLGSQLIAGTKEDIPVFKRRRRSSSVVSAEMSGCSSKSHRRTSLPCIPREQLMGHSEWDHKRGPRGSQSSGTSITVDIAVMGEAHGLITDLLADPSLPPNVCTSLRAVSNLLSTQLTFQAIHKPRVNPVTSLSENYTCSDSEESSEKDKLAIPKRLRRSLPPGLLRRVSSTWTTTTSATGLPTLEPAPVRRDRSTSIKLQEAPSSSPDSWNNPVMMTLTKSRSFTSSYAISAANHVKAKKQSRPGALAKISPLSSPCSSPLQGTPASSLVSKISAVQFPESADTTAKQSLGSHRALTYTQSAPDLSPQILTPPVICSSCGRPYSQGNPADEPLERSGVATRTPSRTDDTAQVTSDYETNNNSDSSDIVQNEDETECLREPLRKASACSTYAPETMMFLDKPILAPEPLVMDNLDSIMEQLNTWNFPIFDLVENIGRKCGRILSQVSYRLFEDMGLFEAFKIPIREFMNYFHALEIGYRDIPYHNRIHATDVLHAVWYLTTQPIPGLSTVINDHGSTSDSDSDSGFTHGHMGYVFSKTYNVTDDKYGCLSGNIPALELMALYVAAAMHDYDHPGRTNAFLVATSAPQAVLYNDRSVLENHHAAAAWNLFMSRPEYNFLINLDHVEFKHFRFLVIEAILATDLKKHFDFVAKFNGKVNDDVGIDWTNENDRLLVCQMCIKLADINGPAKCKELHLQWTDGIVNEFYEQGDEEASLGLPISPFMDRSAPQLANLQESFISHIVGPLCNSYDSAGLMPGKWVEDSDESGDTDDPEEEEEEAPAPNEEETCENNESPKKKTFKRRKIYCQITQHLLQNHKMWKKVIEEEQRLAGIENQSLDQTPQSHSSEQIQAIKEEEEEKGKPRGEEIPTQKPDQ

What is called AC50 is the midpoint of the concentration-response curve, whichever way the signal moves. On to `CC[C@@H](C(N)=O)N1CCCC1=O`, for which the AC50 (on Adenosine receptor A2a; in test [1]; at Vasopressin V2 receptor; in test [2]; in test [3]; in test [4]) was above 30 µM in each case. Further, the AC50 (at Histamine H2 receptor; in test [5]; at Motilin receptor; in test [6]; in [7]; in test [8]) was above 30 µM each time. Moreover, the AC50 (in test [9]; on D(3) dopamine receptor; on Histamine H3 receptor) was above 30 µM each time.

With `CCCCCNC(=N)N/N=C/c1c[nH]c2ccc(OC)cc12` [TEGASEROD], the half-maximal activity concentration (AC50) on Adenosine receptor A2a was above 30 µM; in test [1], above 30 µM; in [10], 7.36 µM; on Vasopressin V2 receptor, 20.3 µM; in test [11], above 30 µM; in [2], above 30 µM. For the same compound, the half-maximal activity concentration (AC50) is above 30 µM in test [3]; above 30 µM in test [4]; above 30 µM at Histamine H2 receptor; 0.543 µM in test [5]; 16.3 µM at Motilin receptor; 4.9 µM in test [6]. Also, the AC50 in test [7] was 19 µM; in test [8], above 30 µM; in test [9], above 30 µM; at D(3) dopamine receptor, 3.5 µM; at Histamine H3 receptor it was 27.2 µM.

For `COc1ccccc1N1CCN(CC(O)COc2cccc3ccccc23)CC1` (stereo not given) [NAFTOPIDIL], the AC50 at Adenosine receptor A2a was above 30 µM; in [1] it was above 30 µM; in [11], 6.3 µM; in test [2], above 30 µM; in [3], above 30 µM; in test [4], above 10 µM. The AC50 at Histamine H2 receptor was 1.3 µM; in test [5], above 30 µM; in test [6], 2.2 µM; in test [7] it was above 30 µM; in [8] it was 13 µM; in test [9], above 30 µM. Also, the AC50 at D(3) dopamine receptor worked out at 0.42 µM.

As for `CN(C)CCC=C1c2ccccc2C=Cc2ccccc21` [CYCLOBENZAPRINE], the concentration at half-maximal activity (AC50) was above 30 µM at Adenosine receptor A2a; above 30 µM in [1]; above 10 µM in [10]; above 30 µM at Vasopressin V2 receptor; above 10 µM in test [11]; 0.35 µM in test [3]. The AC50 in test [4] is above 10 µM; at Histamine H2 receptor, above 10 µM; in [5], 0.88 µM; at Motilin receptor, above 10 µM; in test [7], above 30 µM; in test [8], above 30 µM. Moreover, the figures for the AC50 (in test [9]; on D(3) dopamine receptor; on Histamine H3 receptor) were above 30 µM, 1.1 µM and above 10 µM, respectively.

`C=CCN1C[C@H](C(=O)N(CCCN(C)C)C(=O)NCC)C[C@@H]2c3cccc4[nH]cc(c34)C[C@H]21` [CABERGOLINE]: the half-maximal activity concentration (AC50) on Adenosine receptor A2a is above 10 µM; in test [1] it was 0.599 µM; in test [10], above 10 µM; on Vasopressin V2 receptor it was above 10 µM; in test [11], above 10 µM; in test [2], above 30 µM. In addition, the half-maximal activity concentration (AC50) in [3] was above 30 µM; in [4], above 10 µM; on Histamine H2 receptor, 4.23 µM; in test [5], above 30 µM; at Motilin receptor it was above 10 µM; in [6] it was above 10 µM. Besides, the concentration at half-maximal activity (AC50) in [7] is above 30 µM; in [8], above 30 µM; in [9], above 30 µM; on D(3) dopamine receptor it was 0.0076 µM.

Take `CCOc1ccccc1OCC1CNCCO1` (stereo not given) [VILOXAZINE]: the AC50 on Adenosine receptor A2a is above 30 µM; in [1] it was above 30 µM; in [10] it was 7.6 µM; on Vasopressin V2 receptor, above 30 µM; in test [11], above 10 µM; in test [2], above 10 µM. Also, the AC50 was above 10 µM in [3]; above 10 µM in test [4]; above 10 µM on Histamine H2 receptor; above 10 µM on Motilin receptor; above 10 µM in [6]; above 30 µM in test [7]. For the same compound, the AC50 in test [8] was above 30 µM; in test [9], above 30 µM; on D(3) dopamine receptor, above 10 µM; on Histamine H3 receptor, above 10 µM.

For `COC1=C(OC)C(=O)C(C/C=C(\C)CC/C=C(\C)CC/C=C(\C)CC/C=C(\C)CC/C=C(\C)CC/C=C(\C)CC/C=C(\C)CC/C=C(\C)CC/C=C(\C)CCC=C(C)C)=C(C)C1=O` [UBIDECARENONE], the AC50 (in test [1]; in [2]; in [3]; at Histamine H2 receptor; in test [5]; in [6]) was above 30 µM each time. Also, the half-maximal activity concentration (AC50) (in [7]; in [9]; on D(3) dopamine receptor) was above 30 µM each time.

On to `Cc1oc(=O)oc1CN1CCN(c2cc3c(cc2F)c(=O)c(C(=O)O)c2n3C(C)S2)CC1` (stereo not given) [PRULIFLOXACIN], for which the AC50 (in test [1]; in test [2]; in [3]; at Histamine H2 receptor; in test [5]; in test [6]) was above 30 µM each time. Besides, the AC50 (in [7]; in test [9]; at D(3) dopamine receptor) was above 30 µM each time.

As for `CN(C)CCc1c[nH]c2ccc(C[C@H]3COC(=O)N3)cc12` [ZOLMITRIPTAN], the AC50 is above 30 µM at Adenosine receptor A2a; 14 µM in test [1]; above 30 µM on Vasopressin V2 receptor; above 30 µM in test [2]; above 30 µM in test [3]; above 30 µM in test [4]. Further, the AC50 (at Histamine H2 receptor; in [5]; at Motilin receptor; in test [6]; in [7]; in test [8]) was above 30 µM throughout. Besides, the concentration at half-maximal activity (AC50) (in [9]; at D(3) dopamine receptor; on Histamine H3 receptor) was above 30 µM in each case.
